From PubChem BioAssay AID192 (DTP/NCI, 2004)
Values joined by “and” are separate entries in the source; they are usually repeats but may differ in a detail not shown here. Equal values may be shown once. Toxic doses and inconclusive results are not listed.

Test system: BDF1 mice, B16 melanoma ip, median survival T/C
Test: NCI In Vivo Anticancer Drug Screen. Data for tumor model B16 Melanoma (intraperitoneal) in B6D2F1 (BDF1) mice
Conditions: endpoint: median survival time, higher = longer survival
Outline: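 Survival or tumor size is measured after treatment of tumor-bearing mice and normalised to the vehicle-treated control group.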

[1] = dose: 50.0 mg/kg/injection, schedule: Q01DX009 (ip), vehicle: saline with Tween-80
[2] = dose: 100.0 mg/kg/injection, schedule: Q01DX009 (ip), vehicle: saline with Tween-80
[3] = dose: 200.0 mg/kg/injection, schedule: Q01DX009 (ip), vehicle: saline with Tween-80

CC[C@]1(O)C[C@H]2CN(CCc3c([nH]c4ccccc34)[C@@](C(=O)OC)(c3cc4c(cc3OC)N(C=O)[C@H]3[C@@](O)(C(=O)OC)[C@H](OC(C)=O)[C@]5(CC)C=CCN6CC[C@]43[C@@H]65)C2)C1
T/C (dose: 0.06 mg/kg/injection, schedule: Q01DX009 (ip), vehicle: saline): 154 % of control
T/C (dose: 0.06 mg/kg/injection, schedule: Q01DX009 (ip), vehicle: water): 168 % of control
T/C (dose: 0.06 mg/kg/injection, schedule: Q01DX017 (ip), vehicle: saline): 156 % of control
T/C (dose: 0.08 mg/kg/injection, schedule: Q01DX009 (ip), vehicle: water): 123 % of control
T/C (dose: 0.12 mg/kg/injection, schedule: Q04DX003 (ip), vehicle: saline): 123 % of control
T/C (dose: 0.13 mg/kg/injection, schedule: Q01DX017 (ip), vehicle: saline): 181 % of control
T/C (dose: 0.13 mg/kg/injection, schedule: Q04DX003 (ip), vehicle: saline): 110 % of control
T/C (dose: 0.18 mg/kg/injection, schedule: Q01DX005 (ip), vehicle: saline): 121 % of control
T/C (dose: 0.2 mg/kg/injection, schedule: Q01DX009 (ip), vehicle: saline): 152 % of control and 171 % of control
T/C (dose: 0.23 mg/kg/injection, schedule: Q04DX003 (ip), vehicle: water): 119 % of control and 121 % of control
T/C (dose: 0.25 mg/kg/injection, schedule: Q01DX009 (ip), vehicle: water): 176 % of control and 189 % of control
T/C (dose: 0.25 mg/kg/injection, schedule: Q01DX017 (ip), vehicle: saline): 197 % of control
T/C (dose: 0.3 mg/kg/injection, schedule: Q01DX005 (ip), vehicle: saline): 119 % of control
T/C (dose: 0.36 mg/kg/injection, schedule: Q01DX009 (ip), vehicle: water): 163 % of control
T/C (dose: 0.36 mg/kg/injection, schedule: Q04DX003 (ip), vehicle: saline): 114 % of control
T/C (dose: 0.39 mg/kg/injection, schedule: Q04DX003 (ip), vehicle: saline): 124 % of control
T/C (dose: 0.39 mg/kg/injection, schedule: Q04DX003 (ip), vehicle: water): 119 % of control
T/C (dose: 0.4 mg/kg/injection, schedule: Q01DX009 (ip), vehicle: saline): 178 % of control
T/C (dose: 0.5 mg/kg/injection, schedule: Q01DX001 (ip), vehicle: saline): 120 % of control
T/C (dose: 0.5 mg/kg/injection, schedule: Q01DX009 (ip), vehicle: water): 155 % of control and 163 % of control and 192 % of control
T/C (dose: 0.5 mg/kg/injection, schedule: Q04DX003 (ip), vehicle: saline): 154 % of control
T/C (dose: 0.5 mg/kg/injection, schedule: Q04DX005 (ip), vehicle: saline): 163 % of control
T/C (dose: 0.54 mg/kg/injection, schedule: Q04DX003 (ip), vehicle: saline): 157 % of control
T/C (dose: 0.6 mg/kg/injection, schedule: Q04DX003 (ip), vehicle: saline): 150 % of control and 152 % of control and 176 % of control
T/C (dose: 0.65 mg/kg/injection, schedule: Q01DX001 (ip), vehicle: water): 118 % of control and 120 % of control
T/C (dose: 0.65 mg/kg/injection, schedule: Q04DX003 (ip), vehicle: saline): 102 % of control
T/C (dose: 0.75 mg/kg/injection, schedule: Q04DX003 (ip), vehicle: saline): 152 % of control
T/C (dose: 0.8 mg/kg/injection, schedule: Q04DX003 (ip), vehicle: water): 116 % of control
T/C (dose: 1.0 mg/kg/injection, schedule: Q01DX001 (ip), vehicle: saline): 120 % of control
T/C (dose: 1.0 mg/kg/injection, schedule: Q04DX005 (ip), vehicle: saline): 181 % of control
T/C (dose: 1.08 mg/kg/injection, schedule: Q01DX001 (ip), vehicle: water): 124 % of control
T/C (dose: 1.08 mg/kg/injection, schedule: Q04DX003 (ip), vehicle: saline): 156 % of control
T/C (dose: 1.2 mg/kg/injection, schedule: Q04DX003 (ip), vehicle: saline): 160 % of control and 198 % of control
T/C (dose: 1.5 mg/kg/injection, schedule: Q04DX003 (ip), vehicle: saline): 150 % of control and 158 % of control
T/C (dose: 1.67 mg/kg/injection, schedule: Q04DX003 (ip), vehicle: saline): 54 % of control
T/C (dose: 1.8 mg/kg/injection, schedule: Q01DX001 (ip), vehicle: water): 122 % of control and 124 % of control
T/C (dose: 1.8 mg/kg/injection, schedule: Q04DX003 (ip), vehicle: saline): 159 % of control
T/C (dose: 1.8 mg/kg/injection, schedule: Q04DX003 (ip), vehicle: water): 151 % of control
T/C (dose: 2.0 mg/kg/injection, schedule: Q04DX003 (ip), vehicle: saline): 173 % of control and 180 % of control
T/C (dose: 3.0 mg/kg/injection, schedule: Q04DX003 (ip), vehicle: saline): 67 % of control
T/C (dose: 15.63 micrograms/kg/injection, schedule: Q01DX009 (ip), vehicle: water): 110 % of control
T/C (dose: 62.5 micrograms/kg/injection, schedule: Q01DX009 (ip), vehicle: water): 150 % of control
T/C (dose: 78.0 micrograms/kg/injection, schedule: Q01DX009 (ip), vehicle: saline): 165 % of control
T/C (dose: 78.0 micrograms/kg/injection, schedule: Q01DX009 (ip), vehicle: water): 123 % of control
T/C (dose: 125.0 micrograms/kg/injection, schedule: Q01DX009 (ip), vehicle: water): 159 % of control
T/C (dose: 130.0 micrograms/kg/injection, schedule: Q01DX009 (ip), vehicle: saline): 157 % of control
T/C (dose: 216.0 micrograms/kg/injection, schedule: Q01DX009 (ip), vehicle: saline): 183 % of control
T/C (dose: 216.0 micrograms/kg/injection, schedule: Q04DX003 (ip), vehicle: saline): 123 % of control
T/C (dose: 250.0 micrograms/kg/injection, schedule: Q01DX009 (ip), vehicle: water): 175 % of control
T/C (dose: 360.0 micrograms/kg/injection, schedule: Q01DX009 (ip), vehicle: saline): 160 % of control
T/C (dose: 389.0 micrograms/kg/injection, schedule: Q04DX003 (ip), vehicle: saline): 158 % of control
T/C (dose: 600.0 micrograms/kg/injection, schedule: Q04DX003 (ip), vehicle: saline): 155 % of control
T/C (dose: 648.0 micrograms/kg/injection, schedule: Q04DX003 (ip), vehicle: saline): 153 % of control
T/C (dose: 1000.0 micrograms/kg/injection, schedule: Q04DX003 (ip), vehicle: saline): 152 % of control and 166 % of control
T/C (dose: 1080.0 micrograms/kg/injection, schedule: Q04DX003 (ip), vehicle: saline): 157 % of control
T/C (dose: 1670.0 micrograms/kg/injection, schedule: Q04DX003 (ip), vehicle: saline): 179 % of control
T/C (dose: 1800.0 micrograms/kg/injection, schedule: Q04DX003 (ip), vehicle: saline): 174 % of control

CC1(C)N=C(N)N=C(N)N1c1cccc(CCCCc2ccc(Cl)c(S(=O)(=O)F)c2)c1
T/C (dose: 3.13 mg/kg/injection, schedule: Q01DX009 (ip), vehicle: Klucel (hydroxypropylcellulose) (HPC)): 94 % of control
T/C (dose: 6.25 mg/kg/injection, schedule: Q01DX009 (ip), vehicle: Klucel (hydroxypropylcellulose) (HPC)): 100 % of control
T/C (dose: 12.5 mg/kg/injection, schedule: Q01DX009 (ip), vehicle: Klucel (hydroxypropylcellulose) (HPC)): 94 % of control

CC(C)(C)OC(=O)NCCCC(NC(=O)OCc1ccccc1)C(=O)O (stereo not drawn)
T/C [1]: 101 % of control
T/C [2]: 96 % of control
T/C [3]: 96 % of control
T/C (dose: 400.0 mg/kg/injection, schedule: Q01DX009 (ip), vehicle: saline with Tween-80): 86 % of control

CC(=O)Oc1ccccc1C(=O)O
T/C (dose: 15.7 mg/kg/injection, schedule: Q01DX009 (ip), vehicle: saline with Tween-80): 86 % of control
T/C (dose: 31.3 mg/kg/injection, schedule: Q01DX009 (ip), vehicle: saline with Tween-80): 102 % of control
T/C (dose: 62.5 mg/kg/injection, schedule: Q01DX009 (ip), vehicle: saline with Tween-80): 97 % of control

CCOC(=O)Nc1cc(N)cc(NC(=O)OCC)c1
T/C (dose: 50.0 mg/kg/injection, schedule: Q04DX003 (ip), vehicle: Klucel (hydroxypropylcellulose) (HPC)): 94 % of control
T/C (dose: 100.0 mg/kg/injection, schedule: Q04DX003 (ip), vehicle: Klucel (hydroxypropylcellulose) (HPC)): 100 % of control
T/C (dose: 200.0 mg/kg/injection, schedule: Q04DX003 (ip), vehicle: Klucel (hydroxypropylcellulose) (HPC)): 94 % of control

Cc1cc(Cl)ccc1NC(=O)c1ccccc1Cl
T/C (dose: 100.0 mg/kg/injection, schedule: Q01DX009 (ip), vehicle: Klucel (hydroxypropylcellulose) (HPC)): 114 % of control
T/C (dose: 200.0 mg/kg/injection, schedule: Q01DX009 (ip), vehicle: Klucel (hydroxypropylcellulose) (HPC)): 122 % of control
T/C (dose: 400.0 mg/kg/injection, schedule: Q01DX009 (ip), vehicle: Klucel (hydroxypropylcellulose) (HPC)): 110 % of control

O=CN(SSN(C=O)C1CCCCC1)C1CCCCC1
T/C (dose: 12.5 mg/kg/injection, schedule: Q01DX009 (ip), vehicle: saline with Tween-80): 110 % of control
T/C (dose: 25.0 mg/kg/injection, schedule: Q01DX009 (ip), vehicle: saline with Tween-80): 100 % of control
T/C [1]: 98 % of control
T/C [2]: 102 % of control
T/C [3]: 88 % of control
